“And” between values parts separate entries of the source, which are not always exact repeats. Equal entries are not always repeated.
What was measured:
Assay type in all cases: in vivo, mouse
C57BL mice [1] = test: Intradermal injection of SP in mice, scratching behavior at the injection site (Example 1)
Description: The method of treatment of pruritus was established using C57BL mice where substance P (SP) induced pruritus was created to induce the disease state.
Healthy male C57BL/6 mice ˜6-8 weeks of age and ranging from 21.2 to 26.8 grams in weight at study initiation were used in the Examples. The mice were acclimated for a minimum of 5 days prior to the beginning of the study. The mice were identified by tail mark and cage label. The study was not blinded. Mice were fed species-specific food, and food and water were supplied ad libitum to the animals.
Male C57BL mice were given an intradermal (ID) injection of 0.0168 μg of SP (N=4, Group 1) or PBS (N=2, Group 2) on either the right side only or on both sides. Scratching behavior at the injection site was monitored for 30 minutes from time of injection by two separate observers.
The original dose of 0.0168 μg SP (Group 1) was compared to a higher dose of 33.7 μg SP (N=4, Group 3). […] It was therefore concluded that the scratching behavior was a direct response to the presence and amount of SP.

C57BL mice [2] = test: SP injection, scratches Groups 7-9, 0-30 minutes (Example 3)
Experimental: […] […] Group 9 (N=4) received SP in PBS at a dose of 0.5 mM/50 μL. Various scratching behavior was video recorded and assessed.
Group 7: All mice were placed in a clear cylindrical enclosure 30 minutes prior to testing to acclimate. An ID bolus injection of SP in sodium acetate was administered.
Groups 8 and 9: All mice were placed in a clear cylindrical enclosure 30 minutes prior to testing to acclimate. An ID bolus injection of SP in PBS was administered. Recording began immediately following injection of SP and recorded for 30 minutes.
Animals in Groups 7-9 were acclimated for […] prior to recording. Behavioral recording lasted for 30 minutes (T0-T30).
The number of scratches per 0-30 minutes for Groups 7-9 is given below in Table 2. The numbers for Groups 7 and 8 were averaged together.

C57BL/6 mice [3] = test: SP and nalmefene injection, scratches Groups 10-12, 0-60 minutes (Example 3)
Experimental: Fifteen male C57BL/6 mice received a single intradermal (ID) bolus injection of substance P (SP) or PBS. Group 10 (N=6) received a single 50 μL injection of PBS. Group 11 (N=4) received SP in PBS at a dose of 0.5 mM/50 μl. […] Scratching behavior was video recorded and assessed.
Groups 10 and 11: All mice were placed in a clear cylindrical enclosure 60 minutes prior to testing to acclimate. An ID bolus injection of SP in PBS was administered. Recording began immediately following injection of SP and recorded for 60 minutes.
Group 12: All mice were placed in clear cylinder enclosures for 60 minutes prior to testing to acclimate. A SC bolus injection of nalmefene was administered. 30 minutes after the nalmefene injection, an ID bolus injection of SP in PBS was administered. Recording began immediately following injection of SP and recorded for 60 minutes.
Animals in Groups 10-12 were acclimated for 1 hour prior to recording. Behavioral recording lasted for 60 minutes (T0-T60). 6 animals were dosed for Group 12 but only 5 animals were tested due to one animal being excluded as an outlier due to no response to SP injection.
The number of scratches per 10-minute time interval for Groups 10-12 is given below in Table 3. The data is also shown graphically in FIG. 4.
The number of scratches per 0-30 minute and 30-60 minute time intervals is given below in Table 4 for Group 10 (PBS), Group 11 (0.5 mM SP), and Group 12 (0.75 mg nalmefene). The data is also shown graphically in FIG. 5.

C57BL/6 mice [4] = test: Dose escalation of SP, mean scratch count (Example 4)
Experimental: The SP dose administered to male C57BL/6 mice was escalated and itching was recorded for analysis. Group 13 (N=8) received ID injection of 135 μg SP on the right side of the rostral back. Group 14 (N=8) received ID injection of 233 μg SP on the right side of the rostral back. At T0-60, immediately following dose administration, a camera began recording to monitor itching behavior. At T60, the final itching assessment was completed, camera recording ended, and the study was concluded.
The recordings were reviewed to calculate itching behavior. Two research associates reviewed the recordings and counted the number of scratches for each mouse during the 60-minute collection time. The mean of the two observations were recorded as the number of scratches per 60 minutes.
The scratching over time was observed per 10 minute time period for each animal tested. The data is set forth below in Table 6 and is shown graphically in FIG. 6.

[5] = 250 mM SP ID, Groups 7 and 8 averaged together
[6] = Group 11, SP 0.5 mM/50 μL ID, 0-10 min
[7] = Group 11, SP 0.5 mM/50 μL ID, 10-20 min
[8] = Group 11, SP 0.5 mM/50 μL ID, 20-30 min
[9] = Group 11, SP 0.5 mM/50 μL ID, 30-40 min
[10] = Group 11, SP 0.5 mM/50 μL ID, 40-50 min
[11] = Group 11, SP 0.5 mM/50 μL ID, 50-60 min
[12] = Group 13, 135 μg SP ID, 0-10 min
[13] = Group 13, 135 μg SP ID, 10-20 min
[14] = Group 13, 135 μg SP ID, 20-30 min
[15] = Group 13, 135 μg SP ID, 30-40 min
[16] = Group 13, 135 μg SP ID, 40-50 min
[17] = Group 13, 135 μg SP ID, 50-60 min
[18] = Group 14, 233 μg SP ID, 0-10 min
[19] = Group 14, 233 μg SP ID, 10-20 min
[20] = Group 14, 233 μg SP ID, 20-30 min
[21] = Group 14, 233 μg SP ID, 30-40 min
[22] = Group 14, 233 μg SP ID, 40-50 min
[23] = Group 14, 233 μg SP ID, 50-60 min

## SP: neuropeptide that plays a role in the induction and maintenance of pruritus; injected intradermally to induce scratching
C57BL mice [1]; 0.0168 μg SP ID vs PBS-injected mice, 30 minutes from injection, FIG. 2a
  local site scratching behavior: more frequent
C57BL mice [1]; 33.7 μg SP vs 0.0168 μg SP, FIG. 2b
  scratching in mice, higher vs lower SP dose: increased scratching
C57BL mice [2]; [5]
  Scratches, Facial, Avg.: 110
  Scratches, Facial, individual animals: 110 and 139 and 137 and 54
  Scratches, Left Side, Avg.: 39
  Scratches, Left Side, individual animals: 1 and 69 and 4 and 82
  Scratches, Other, Avg.: 38
  Scratches, Other, individual animals: 38 and 45 and 43 and 26
  Scratches, Rt. Side, Avg.: 12.5
  Scratches, Rt. Side, individual animals: 0 and 36 and 4 and 10
C57BL mice [2]; SP 0.5 mM ID (Group 9)
  Scratches, Facial, Avg.: 29.75
  Scratches, Facial, individual animals: 5 and 20 and 48 and 46
  Scratches, Left Side, Avg.: 12
  Scratches, Left Side, individual animals: 15 and 22 and 11 and 0
  Scratches, Other, Avg.: 21
  Scratches, Other, individual animals: 7 and 27 and 35 and 15
  Scratches, Rt. Side, Avg.: 16.75
  Scratches, Rt. Side, individual animals: 28 and 7 and 13 and 19
C57BL/6 mice [3]; Group 11, SP 0.5 mM, 0-30 min
  Scratches, Avg.: 87.5
  Scratches, individual animals: 119 and 67 and 94.5 and 69.5
C57BL/6 mice [3]; Group 11, SP 0.5 mM, 30-60 min
  Scratches, Avg.: 8.38
  Scratches, individual animals: 19.5 and 5.5 and 2.5 and 6
C57BL/6 mice [3]; [6]
  Scratches, Avg.: 53.75
  Scratches, individual animals: 57.5 and 66 and 49 and 42.5
C57BL/6 mice [3]; [7]
  Scratches, Avg.: 28
  Scratches, individual animals: 41.5 and 1 and 45 and 24.5
C57BL/6 mice [3]; [8]
  Scratches, Avg.: 5.75
  Scratches, individual animals: 20 and 0 and 0.5 and 2.5
C57BL/6 mice [3]; [9]
  Scratches, Avg.: 6
  Scratches, individual animals: 15.5 and 0 and 2.5 and 6
C57BL/6 mice [3]; [10]
  Scratches, Avg.: 0
  Scratches, individual animals: 0
C57BL/6 mice [3]; [11]
  Scratches, Avg.: 2.38
  Scratches, individual animals: 4 and 5.5 and 0 (2×)
C57BL/6 mice [4]; [12]
  Mean Scratch Count, Avg.: 56.75
  Mean Scratch Count, individual animals: 127 and 58 and 5.5 and 22 and 57 and 21.5 and 91 and 72
C57BL/6 mice [4]; [13]
  Mean Scratch Count, Avg.: 26.44
  Mean Scratch Count, individual animals: 53.5 and 41.5 and 0 and 7 and 36 and 23 and 41 and 9.5
C57BL/6 mice [4]; [14]
  Mean Scratch Count, Avg.: 8.88
  Mean Scratch Count, individual animals: 0 (2×) and 4 and 7 and 2 and 12.5 and 22.5 and 23
C57BL/6 mice [4]; [15]
  Mean Scratch Count, Avg.: 3.69
  Mean Scratch Count, individual animals: 0 (4×) and 15 and 0.5 and 12 and 2
C57BL/6 mice [4]; [16]
  Mean Scratch Count, Avg.: 1.06
  Mean Scratch Count, individual animals: 0 (6×) and 5 and 3.5
C57BL/6 mice [4]; [17]
  Mean Scratch Count, Avg.: 0.31
  Mean Scratch Count, individual animals: 0 (6×) and 2 and 0.5
C57BL/6 mice [4]; [18]
  Mean Scratch Count, Avg.: 89.88
  Mean Scratch Count, individual animals: 123 and 131.5 and 108 and 85.5 and 8 and 33 and 145 and 85
C57BL/6 mice [4]; [19]
  Mean Scratch Count, Avg.: 30.06
  Mean Scratch Count, individual animals: 56.5 and 32 and 42 and 33 and 6 and 9 and 35 and 27
C57BL/6 mice [4]; [20]
  Mean Scratch Count, Avg.: 13.94
  Mean Scratch Count, individual animals: 7 and 6 and 27 and 21.5 and 5 and 10.5 and 16 and 18.5
C57BL/6 mice [4]; [21]
  Mean Scratch Count, Avg.: 5.19
  Mean Scratch Count, individual animals: 0 (2×) and 3 and 5 (2×) and 16.5 and 8 and 4
C57BL/6 mice [4]; [22]
  Mean Scratch Count, Avg.: 3.56
  Mean Scratch Count, individual animals: 3 and 0 (3×) and 4 and 7.5 and 1 and 13
C57BL/6 mice [4]; [23]
  Mean Scratch Count, Avg.: 6.31
  Mean Scratch Count, individual animals: 8 and 0 (2×) and 2 and 33 and 1 (2×) and 5.5
